Experimental data from patent publication US12285012B2, “Compositions comprising pyridine carboxylate herbicides with acetolactate synthase (ALS) inhibitor herbicides” (Corteva Agriscience LLC, priority 2018, dated 2025).
Several values for one entry are separate records, joined by “and”; a condition that tells them apart may be missing. Identical values can stand only once. Like-named read-outs stand apart in the source and are kept apart here.

Assays:
[1] = test system: false chamomile (MATIN, Matricaria inodora); assay: Greenhouse postemergence herbicidal effect; type: in vivo
Summary of the method: (§1)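 Injury was rated visually after 20-22 d on a 0 (none) to 100% (complete kill) scale relative to solvent-sprayed controls, with sub-irrigation to avoid wash-off. Rates were given in g ae/ha or g ai/ha depending on component.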

[2] = test system: cornflower (CENCY, Cyanus segetum); assay: Greenhouse postemergence herbicidal effect; type: in vivo
Summary of the method: as §1

[3] = test system: corn poppy (PAPRH, Papaver rhoeas); assay: Greenhouse postemergence herbicidal effect; type: in vivo
Summary of the method: as §1

[4] = test system: cleavers (GALAP, Galium aparine); assay: Greenhouse postemergence herbicidal effect; type: in vivo
Summary of the method: as §1

[5] = test system: shepherd's purse (CAPBP, Capsella bursa-pastoris); assay: Greenhouse postemergence herbicidal effect; type: in vivo
Summary of the method: as §1

[6] = test system: R-PAPRH = Papaver rhoeas (corn poppy), herbicide-resistant; assay: Greenhouse postemergence herbicidal effect; type: in vivo
Summary of the method: as §1

[7] = test system: purple deadnettle (LAMPU, Lamium purpureum); assay: Greenhouse postemergence herbicidal effect; type: in vivo
Summary of the method: as §1

[8] = test system: bird's-eye speedwell (VERPE, Veronica persica); assay: Greenhouse postemergence herbicidal effect; type: in vivo
Summary of the method: as §1

spring wheat (TRZAS) = type: in vivo, Triticum aestivum; conditions: for % visual injury Obs-Exp: Pyroxsulam 0
Summary of the method: as §1

spring barley (HORVS) = type: in vivo, Hordeum vulgare
Summary of the method: as §1

[9] = test system: velvetleaf (ABUTH, Abutilon theophrasti); assay: Greenhouse postemergence herbicidal effect; type: in vivo
Summary of the method: (§2)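 Plants at second or third true leaf stage, greenhouse-grown (~14 h photoperiod, about 23/22° C), sprayed at 187 L/ha with pyridine carboxylate herbicide (g ae/ha; with cloquintocet-mexyl safener unless noted) alone or plus ALS herbicide (g ai/ha) in 1.25% v/v oil adjuvant. Visual injury, 0 to 100% versus solvent-blank controls, after 20-22 d.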

[10] = test system: common sunflower (HELAN, Helianthus annuus); assay: Greenhouse postemergence herbicidal effect; type: in vivo
Summary of the method: as §2

[11] = test system: broad-leaf dock (RUMOB, Rumex obtusifolius); assay: Greenhouse postemergence herbicidal effect; type: in vivo; conditions: for Obs % visual injury: RUMOB
Summary of the method: as §2

[12] = test system: soybean (GLXMA, Glycine max); assay: Greenhouse postemergence herbicidal effect; type: in vivo
Summary of the method: as §2

[13] = test system: ivyleaf morningglory (IPOHE, Ipomoea hederacea); assay: Greenhouse postemergence herbicidal effect; type: in vivo
Summary of the method: as §2

[14] = test system: large crabgrass (DIGSA, Digitaria sanguinalis); assay: Greenhouse postemergence herbicidal effect; type: in vivo; conditions: for Obs % visual injury: DIGSA
Summary of the method: as §2

winter barley (HORVW) = assay: Greenhouse postemergence crop phytotoxicity; type: in vivo, Hordeum vulgare
From the text: Seeds of the desired test plant species were planted in a 90:10% v/v (volume/volume) mixture of PRO-MIX® BX (Premier Tech Horticulture, Quakertown, PA, USA) and PROFILE® GREENS GRADE™ (Profile Products LLC, Buffalo Grove, IL, USA) planting mixture, which typically has a pH of 5.2 to 6.2 and an organic matter content of at least 50 percent, in plastic pots with a surface area of 103.2 square centimeters (cm^2). In some aspects, to ensure good germination and healthy plants, a fungicide treatment and/or other chemical or physical treatment was applied. The plants were grown for 7-36 days (d) in a greenhouse with an approximate 14-hour (h) photo-period which was maintained at about 23° C. during the day and 22° C. during the night. Nutrients and water were added on a regular basis and supplemental lighting was provided with overhead metal halide 1000-Watt lamps as necessary. The plants were employed for testing when they reached the second or third true leaf stage.
Emulsifiable concentrates of each of each pyridine carboxylate herbicide (Compound A or Compound B) were prepared at 100 grams acid equivalent per liter (g ae/L). The emulsifiable concentrates also included a safener, cloquintocet-mexyl, at 120 grams active ingredient per liter (g ai/L), unless otherwise noted below. An aliquot of each emulsifiable concentrate was placed in a 25 mL glass vial and diluted with an aqueous mixture of 1.25% (v/v) ACTIROB® B esterified rapeseed oil (Bayer Crop Science, Research Triangle Park, NC, USA) or MSO® Concentrate with LECI-TECH® methylated soybean oil (Loveland Products, Loveland, CO, USA) to obtain concentrated stock solutions at the highest application rate for each herbicide, based upon a 12 milliliter (mL) application volume at a rate of 187 liters per hectare (L/ha). The concentrated stock solutions were further diluted with an aqueous mixture of 1.25% v/v ACTIROB® B or MSO® Concentrate with LECI-TECH® to obtain stock solutions at reduced application rates for each herbicide. Spray solutions of the herbicide combinations (Compound A or Compound B plus ALS herbicide) were prepared by adding weighed amounts or aliquots of the ALS herbicides to the stock solutions of Compound A or Compound B to form 12-mL spray solutions in two- or three-way combinations. […]
The treated plants and control plants were placed in a greenhouse as described above and watered by sub-irrigation to prevent wash-off of the test compounds. After 20-22 d, the condition of the test plants as compared with that of the control plants was determined visually and scored on a scale of 0 to 100 percent where 0 corresponds to no injury and 100 corresponds to complete kill.

[15] = Compound A 10 g/ha (Examples 62-63)
[16] = Compound A 10 g/ha, safener mefenpyr-diethyl

N#CCOC(=O)c1nc(-c2ccc3cc[nH]c3c2F)c(F)c(N)c1Cl [Compound A, cyanomethyl 4-amino-3-chloro-5-fluoro-6-(7-fluoro-1H-indol-6-yl)pyridine-2-carboxylate]
% visual injury ([1]; Compound A 10 g/ha): 100% | % visual injury ([1]; Compound A 15 g/ha): 100% | % visual injury ([2]; Compound A 10 g/ha): 93% | % visual injury ([2]; Compound A 15 g/ha): 95% | % visual injury ([3]; Compound A 10 g/ha): 100% | % visual injury ([3]; Compound A 15 g/ha): 100% | % visual injury ([4]; Compound A 10 g/ha): 25% | % visual injury ([4]; Compound A 15 g/ha): 35% | % visual injury ([5]; Compound A 10 g/ha): 70% | % visual injury ([5]; Compound A 15 g/ha): 80% | % visual injury ([6]; Compound A 10 g/ha): 93% | % visual injury ([6]; Compound A 15 g/ha): 93% | % visual injury ([7]; Compound A 10 g/ha): 75% | % visual injury ([7]; Compound A 15 g/ha): 75% | % visual injury ([8]; Compound A 10 g/ha): 93% | % visual injury ([8]; Compound A 15 g/ha): 95% | % visual injury, Obs (spring wheat (TRZAS); 10 g/ha): 0% | % visual injury (spring wheat (TRZAS); Compound A 10 g/ha): 0% and 3% | % visual injury Obs (spring wheat (TRZAS); Compound A 10 g/ha): 0% | % visual injury, Obs (spring wheat (TRZAS); Compound A 10 g/ha): 0% | TRZAS % visual injury Obs (spring wheat (TRZAS); [15]): 0% | % visual injury, Obs (spring wheat (TRZAS); [16]): 3% | TRZAS % visual injury Obs (spring wheat (TRZAS); [16]): 3% | % visual injury (spring wheat (TRZAS); Compound A 15 g/ha): 0% | % visual injury Obs (spring wheat (TRZAS); Compound A 15 g/ha): 0% | % visual injury, Obs (spring wheat (TRZAS); TRZAS, Compound A 10 g/ha): 0% | Obs % visual injury (spring wheat (TRZAS); TRZAS, Compound A 10 g/ha): 0% | Obs % visual injury (spring wheat (TRZAS); TRZAS, Compound A 10 g/ha (Table 65)): 0% | Obs % visual injury (spring wheat (TRZAS); TRZAS, Compound A 10 g/ha (Table 66)): 0% | Obs % visual injury (spring wheat (TRZAS); TRZAS, Compound A 10 g/ha (Table 67)): 3% | % visual injury, Obs (spring wheat (TRZAS); TRZAS, Compound A 15 g/ha): 0% | Obs % visual injury (spring wheat (TRZAS); TRZAS, Compound A 15 g/ha): 0% | Obs % visual injury (spring wheat (TRZAS); TRZAS, Compound A 15 g/ha (Table 67)): 0% | % visual injury Obs-Exp (spring wheat (TRZAS); printed under Compound A 10 g/ha): 0% | % visual injury Obs-Exp (spring wheat (TRZAS); printed under Compound A 15 g/ha): 0% | % visual injury, Obs (spring barley (HORVS); 10 g/ha): 0% | % visual injury (spring barley (HORVS); Compound A 10 g/ha): 0% | % visual injury Obs (spring barley (HORVS); Compound A 10 g/ha): 0% | % visual injury, Obs (spring barley (HORVS); Compound A 10 g/ha): 0% | HORVS % visual injury Obs (spring barley (HORVS); [15]): 0% | % visual injury (spring barley (HORVS); Compound A 15 g/ha): 0% | % visual injury Obs (spring barley (HORVS); Compound A 15 g/ha): 0% | % visual injury, Obs (spring barley (HORVS); HORVS, Compound A 10 g/ha): 0% | Obs % visual injury (spring barley (HORVS); HORVS, Compound A 10 g/ha): 0% | Obs % visual injury (spring barley (HORVS); HORVS, Compound A 10 g/ha (Table 65)): 0% | Obs % visual injury (spring barley (HORVS); HORVS, Compound A 10 g/ha (Table 66)): 0% | Obs % visual injury (spring barley (HORVS); HORVS, Compound A 10 g/ha (Table 67)): 5% | % visual injury, Obs (spring barley (HORVS); HORVS, Compound A 15 g/ha): 0% | Obs % visual injury (spring barley (HORVS); HORVS, Compound A 15 g/ha): 0% | Obs % visual injury (spring barley (HORVS); HORVS, Compound A 15 g/ha (Table 67)): 3% | % visual injury, Obs ([9]; 10 g/ha): 48% | % visual injury, Obs [9, 16]: 73% | ABUTH % visual injury Obs [9, 16]: 73% | % visual injury ([10]; Compound A 10 g/ha): 89% | % visual injury, Obs [10, 16]: 98% | HELAN % visual injury Obs [10, 16]: 98% | % visual injury, Obs [11, 16]: 20% | RUMOB % visual injury Obs [11, 16]: 20% | % visual injury, Obs [12, 16]: 95% | GLXMA % visual injury Obs [12, 16]: 95% | % visual injury ([13]; Compound A 10 g/ha): 25% | % visual injury, Obs [13, 16]: 5% | IPOHE % visual injury Obs [13, 16]: 5% | % visual injury, Obs ([14]; 10 g/ha): 0% | % visual injury, Obs [14, 16]: 10% | DIGSA % visual injury Obs [14, 16]: 10% | % visual injury (winter barley (HORVW); Compound A 10 g/ha): 0% | % visual injury (winter barley (HORVW); Compound A 15 g/ha): 0%

C#CCOC(=O)c1nc(-c2ccc3cc[nH]c3c2F)c(F)c(N)c1Cl [Compound B, propargyl 4-amino-3-chloro-5-fluoro-6-(7-fluoro-1H-indol-6-yl)pyridine-2-carboxylate]
Obs % visual injury (spring wheat (TRZAS); TRZAS, Compound B 5 g/ha): 13% | Obs % visual injury (spring wheat (TRZAS); TRZAS, Compound B (without cloquintocet-mexyl safener) 10 g/ha): 28% | Obs % visual injury (spring barley (HORVS); HORVS, Compound B 10 g/ha): 0% | % visual injury, Obs ([9]; 10 g/ha): 68% | % visual injury, Obs ([10]; 10 g/ha): 100% | % visual injury, Obs ([11]; 10 g/ha): 15% | Obs % visual injury ([11]; Compound B 5 g/ha): 23% | Obs % visual injury ([11]; Compound B 10 g/ha): 18% | % visual injury, Obs ([12]; 10 g/ha): 73% | % visual injury, Obs ([13]; 10 g/ha): 0% | Obs % visual injury ([14]; Compound B 5 g/ha): 50% | Obs % visual injury ([14]; Compound B 10 g/ha): 63%

COc1ncc(F)c2nc(S(=O)(=O)Nc3c(F)cccc3F)nn12 [Florasulam, florasulam]
% visual injury ([1]; Florasulam 5 g/ha): 100% | % visual injury ([2]; Florasulam 5 g/ha): 70% | % visual injury ([3]; Florasulam 5 g/ha): 97% | % visual injury ([4]; Florasulam 5 g/ha): 95% | % visual injury ([5]; Florasulam 5 g/ha): 80% | % visual injury ([6]; Florasulam 5 g/ha): 75% | % visual injury ([7]; Florasulam 5 g/ha): 10% | % visual injury ([8]; Florasulam 5 g/ha): 10% | % visual injury Obs (spring wheat (TRZAS); Florasulam 3.75 g/ha): 0% | % visual injury (spring wheat (TRZAS); Florasulam 5 g/ha): 0% | % visual injury Obs (spring barley (HORVS); Florasulam 3.75 g/ha): 0% | % visual injury (spring barley (HORVS); Florasulam 5 g/ha): 0% | % visual injury (winter barley (HORVW); Florasulam 5 g/ha): 0%
